“And” between values parts separate entries of the source, which are not always exact repeats. Equal entries are not always repeated. Inconclusive results and toxic doses are left out. No stated cut-off is given here; in the data, active means T/C of 150% or more; inactive means T/C below 125%.
Tested on: L1210 leukemia ip in BDF1 mice, survival T/C
Test: NCI In Vivo Anticancer Drug Screen. Data for tumor model L1210 Leukemia (intraperitoneal) in B6D2F1 (BDF1) mice
Settings: endpoint: mean survival time, higher = longer survival
In short: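 Read-out is survival time, reported as the treated-group measurement over the vehicle-control measurement.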

[1] = dose: 50.0 mg/kg/injection, schedule: Q01DX009 (ip), vehicle: Klucel (hydroxypropylcellulose) (HPC)
[2] = dose: 100.0 mg/kg/injection, schedule: Q01DX009 (ip), vehicle: Klucel (hydroxypropylcellulose) (HPC)
[3] = dose: 100.0 mg/kg/injection, schedule: Q04DX003 (ip), vehicle: Klucel (hydroxypropylcellulose) (HPC)
[4] = dose: 200.0 mg/kg/injection, schedule: Q01DX009 (ip), vehicle: Klucel (hydroxypropylcellulose) (HPC)
[5] = dose: 200.0 mg/kg/injection, schedule: Q04DX003 (ip), vehicle: Klucel (hydroxypropylcellulose) (HPC)
[6] = dose: 400.0 mg/kg/injection, schedule: Q04DX003 (ip), vehicle: Klucel (hydroxypropylcellulose) (HPC)
[7] = dose: 50.0 mg/kg/injection, schedule: Q01DX009 (ip), vehicle: saline with Tween-80
[8] = dose: 100.0 mg/kg/injection, schedule: Q01DX009 (ip), vehicle: saline with Tween-80
[9] = dose: 200.0 mg/kg/injection, schedule: Q01DX009 (ip), vehicle: saline with Tween-80
[10] = dose: 100.0 mg/kg/injection, schedule: Q04DX003 (ip), vehicle: saline
[11] = dose: 100.0 mg/kg/injection, schedule: Q01DX009 (ip), vehicle: water
[12] = dose: 100.0 mg/kg/injection, schedule: Q04DX003 (ip), vehicle: water
[13] = dose: 200.0 mg/kg/injection, schedule: Q04DX003 (ip), vehicle: water
[14] = dose: 400.0 mg/kg/injection, schedule: Q01DX009 (ip), vehicle: water
[15] = dose: 400.0 mg/kg/injection, schedule: Q04DX003 (ip), vehicle: water
[16] = dose: 25.0 mg/kg/injection, schedule: Q04DX002 (ip), vehicle: saline
[17] = dose: 50.0 mg/kg/injection, schedule: Q04DX002 (ip), vehicle: saline
[18] = dose: 100.0 mg/kg/injection, schedule: Q04DX002 (ip), vehicle: saline
[19] = dose: 100.0 mg/kg/injection, schedule: Q01DX001 (ip), vehicle: Klucel (hydroxypropylcellulose) (HPC)
[20] = dose: 200.0 mg/kg/injection, schedule: Q01DX001 (ip), vehicle: Klucel (hydroxypropylcellulose) (HPC)
[21] = dose: 400.0 mg/kg/injection, schedule: Q01DX001 (ip), vehicle: Klucel (hydroxypropylcellulose) (HPC)

Measured: T/C

Brc1cc(Br)c2c(c1)-c1ccccc1C2
inactive: dose: 100.0 mg/kg/injection, schedule: Q01DX001 (ip), vehicle: carboxymethylcellulose (CMC) 96 % of control | dose: 200.0 mg/kg/injection, schedule: Q01DX001 (ip), vehicle: carboxymethylcellulose (CMC) 113 % of control | dose: 400.0 mg/kg/injection, schedule: Q01DX001 (ip), vehicle: carboxymethylcellulose (CMC) 96 % of control

CCN(CC)CCCC(C)NC/C=C/CNC(C)CCCN(CC)CC (stereo unspecified)
inactive: dose: 0.78 mg/kg/injection, schedule: Q01DX009 (ip), vehicle: water 104 % of control | dose: 6.25 mg/kg/injection, schedule: Q04DX003 (ip), vehicle: water 105 % of control | dose: 12.5 mg/kg/injection, schedule: Q04DX003 (ip), vehicle: water 92 % of control | dose: 25.0 mg/kg/injection, schedule: Q01DX009 (ip), vehicle: water 104 % of control | dose: 25.0 mg/kg/injection, schedule: Q04DX003 (ip), vehicle: water 103 % of control

CCCCCCCCCCCCCCCCC/C=N\N=C(N)N
inactive: dose: 15.0 mg/kg/injection, schedule: Q01DX Z (ip), vehicle: carboxymethylcellulose (CMC) 101 % of control | dose: 30.0 mg/kg/injection, schedule: Q01DX Z (ip), vehicle: carboxymethylcellulose (CMC) 96 % of control | dose: 60.0 mg/kg/injection, schedule: Q01DX Z (ip), vehicle: carboxymethylcellulose (CMC) 90 % of control | dose: 60.0 mg/kg/injection, schedule: Q01DX Z (oral), vehicle: carboxymethylcellulose (CMC) 106 % of control | dose: 120.0 mg/kg/injection, schedule: Q01DX Z (ip), vehicle: carboxymethylcellulose (CMC) 104 % of control | dose: 120.0 mg/kg/injection, schedule: Q01DX Z (oral), vehicle: carboxymethylcellulose (CMC) 110 % of control | dose: 240.0 mg/kg/injection, schedule: Q01DX Z (oral), vehicle: carboxymethylcellulose (CMC) 118 % of control | dose: 480.0 mg/kg/injection, schedule: Q01DX Z (oral), vehicle: carboxymethylcellulose (CMC) 118 % of control

Cc1ccc(S(=O)(=O)N2CCOCCOCCOc3ccc4ccccc4c3-c3c(ccc4ccccc34)OCCOCC2)cc1
inactive: dose: 100.0 mg/kg/injection, schedule: Q01DX001 (ip), vehicle: saline with Tween-80 95 % of control | dose: 200.0 mg/kg/injection, schedule: Q01DX001 (ip), vehicle: saline with Tween-80 88 % of control | dose: 400.0 mg/kg/injection, schedule: Q01DX001 (ip), vehicle: saline with Tween-80 95 % of control

COc1c(Cl)cc2c(c1OC)N(C)C1N3C(=O)C4(C)SSC3(C(=O)N4C)C(O)C21O (stereo unspecified)
inactive: dose: 0.12 mg/kg/injection, schedule: Q01DX009 (ip), vehicle: Klucel (hydroxypropylcellulose) (HPC) 106 % of control | dose: 0.25 mg/kg/injection, schedule: Q01DX009 (ip), vehicle: Klucel (hydroxypropylcellulose) (HPC) 101 % of control | dose: 0.5 mg/kg/injection, schedule: Q01DX009 (ip), vehicle: Klucel (hydroxypropylcellulose) (HPC) 110 % of control | dose: 1.0 mg/kg/injection, schedule: Q01DX009 (ip), vehicle: Klucel (hydroxypropylcellulose) (HPC) 108 % of control

O=S(=O)(CCCl)Cc1ccc(Cl)cc1
inactive: dose: 100.0 mg/kg/injection, schedule: Q04DX002 (ip), vehicle: Klucel (hydroxypropylcellulose) (HPC) 104 % of control | dose: 200.0 mg/kg/injection, schedule: Q04DX002 (ip), vehicle: Klucel (hydroxypropylcellulose) (HPC) 93 % of control

Cc1cc2ccccc2c[n+]1C
inactive: dose: 12.5 mg/kg/injection, schedule: Q01DX009 (ip), vehicle: saline 95 % of control | dose: 12.5 mg/kg/injection, schedule: Q04DX003 (ip), vehicle: saline 106 % of control | dose: 25.0 mg/kg/injection, schedule: Q01DX009 (ip), vehicle: saline 101 % of control | dose: 25.0 mg/kg/injection, schedule: Q04DX003 (ip), vehicle: saline 90 % of control | dose: 50.0 mg/kg/injection, schedule: Q01DX009 (ip), vehicle: saline 108 % of control | dose: 50.0 mg/kg/injection, schedule: Q04DX003 (ip), vehicle: saline 107 % of control

Cc1ccc(NC(=O)OCCN2CCNC2=S)c([N+](=O)[O-])c1
inactive: [1] 95 % of control | [2] 87 % of control | [3] 93 % of control | [4] 91 % of control | [5] 91 % of control | [6] 96 % of control

CC(=O)C1C(=O)C(=O)OC1C (stereo unspecified)
inactive: dose: 100.0 mg/kg/injection, schedule: Q04DX003 (ip), vehicle: alcohol 94 % of control | dose: 200.0 mg/kg/injection, schedule: Q04DX003 (ip), vehicle: alcohol 96 % of control

COc1ccc(/C=N/NC(=O)c2ccc(Cl)cc2)cc1
inactive: [7] 88 % of control | [8] 105 % of control | [9] 91 % of control

Cc1nc(Cl)c(C#N)c(C)c1[N+](=O)[O-]
inactive: [10] 95 % of control | dose: 200.0 mg/kg/injection, schedule: Q04DX003 (ip), vehicle: saline 90 % of control

CC(C)N(C(C)C)S(C)(=O)=O
inactive: [10] 92 % of control

COC(=O)/C=C/c1c[nH]c2nccnc12
inactive: [11] 98 % of control | [12] 101 % of control | dose: 200.0 mg/kg/injection, schedule: Q01DX009 (ip), vehicle: water 95 % of control | [13] 98 % of control | [14] 97 % of control | [15] 102 % of control

Cc1ccc(C2C(C(=O)N3CCN(C)CC3)C2c2ccccc2)cc1 (stereo unspecified)
inactive: [16] 98 % of control | [17] 98 % of control | [18] 95 % of control

O=C(O)C(Cc1ccccc1)NC(=O)C(F)(F)F (stereo unspecified)
inactive: dose: 100.0 mg/kg/injection, schedule: Q04DX003 (ip), vehicle: other 90 % of control | dose: 200.0 mg/kg/injection, schedule: Q04DX003 (ip), vehicle: other 89 % of control

COc1cc2c(cc1OC)C(OC)N(C)c1c-2ccc2cc(OC)c(OC)cc12 (stereo unspecified)
inactive: [11] 110 % of control | [12] 103 % of control | [13] 115 % of control | [14] 104 % of control and 122 % of control | [15] 113 % of control

Cc1ccc(-n2c(=O)c(N=Nc3ccc(Cl)cc3)c(O)n(-c3ccccc3C)c2=S)cc1
inactive: [19] 97 % of control | [20] 87 % of control | [21] 92 % of control

NNC(=O)CCCO
inactive: dose: 100.0 mg/kg/injection, schedule: Q04DX003 (ip), vehicle: saline with Tween-80 103 % of control | dose: 200.0 mg/kg/injection, schedule: Q04DX003 (ip), vehicle: saline with Tween-80 98 % of control | dose: 400.0 mg/kg/injection, schedule: Q04DX003 (ip), vehicle: saline with Tween-80 101 % of control

COC(=O)/C(Br)=C\c1ccc(-c2ccccc2)cc1
inactive: [7] 93 % of control | [8] 93 % of control | [9] 93 % of control

C=C1C(=O)OC2C1C(OC(=O)/C(=C/C)COC(C)=O)CC1(CO1)C1C(OC(=O)/C(=C/C)CO)C=C(C)C21 (stereo unspecified)
inactive: [1] 93 % of control | [2] 93 % of control | [4] 86 % of control

NC(CCl)=NCCOC12CC3CC(CC(C3)C1)C2
inactive: [16] 94 % of control | [17] 112 % of control | [18] 96 % of control and 87 % of control

CN(C)c1ccc(/C=C(\C#N)c2nc3ccccc3[nH]2)cc1
inactive: [19] 96 % of control | [3] 91 % of control | [20] 99 % of control | [5] 94 % of control | [21] 96 % of control | [6] 93 % of control

C=CCNC(=S)Nc1cc(Cl)ccc1OC
inactive: [2] 90 % of control | [3] 94 % of control | [5] 92 % of control | dose: 400.0 mg/kg/injection, schedule: Q01DX009 (ip), vehicle: Klucel (hydroxypropylcellulose) (HPC) 86 % of control | [6] 94 % of control

Cn1c(=O)c2ccccc2c2cc(Cl)ccc21
inactive: [2] 94 % of control | [3] 96 % of control | [5] 96 % of control | [6] 93 % of control
